Key:
[1] = test system: phosphorylated ERK downstream of KRAS G12C in MIA PaCa2 cells; assay: Cell p-ERK detection experiment (HTRF) in MIA PaCa2; type: cell-based, human; conditions: Homo sapiens, MIA PaCa-2, 2 h, MIA PaCa2 cells, 2 hours with compound, Advance ERK phospho-T202/Y204 HTRF kit; read-out: p-ERK IC50
Outline: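 KRAS G12C-mutant MIA PaCa2 cells (2.5E4 per well, overnight) exposed 2 h to a 3.16-fold compound dilution series at 0.1% DMSO. Lysates probed 4 h with HTRF antibodies to ERK phospho-T202/Y204; inhibition versus DMSO control and blank, IC50 by four-parameter fit.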

KRAS G12C = molecular target: T1, KRAS G12C (Homo sapiens, UniProt P01116, G12C); assay: KRAS G12C NEA-HTRF experiment (SOS1-catalyzed displacement of GDP by GTP); type: biochemical
T1 construct: purchased Reactionbiology
T1 sequence (P01116 1-188 isoform P01116-2 G12C): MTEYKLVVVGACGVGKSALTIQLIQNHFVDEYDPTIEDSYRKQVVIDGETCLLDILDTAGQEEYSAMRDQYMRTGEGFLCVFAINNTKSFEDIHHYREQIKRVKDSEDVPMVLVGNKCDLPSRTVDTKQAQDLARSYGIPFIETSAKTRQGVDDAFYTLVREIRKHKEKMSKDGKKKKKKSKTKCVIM
Outline: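 His-tagged KRAS G12C preloaded with DY647-GDP was preincubated 15 min at 20 °C with compound, then exchanged with SOS1 (0.2 μM working solution) and GTP (200 μM working solution) for 2 h at 20 °C in the dark. HTRF 665/615 nm ratio with anti-His-Tb was normalised to T0 and no-compound controls; IC50 by four-parameter fit.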

Structure (SMILES) | IC50 [1] | IC50 (KRAS G12C)
C=CC(=O)N1CCN2C(=O)c3c(N4CCN(C(=O)CC)C[C@@H]4C)nc(-c4ccccc4F)c(Cl)c3OC[C@H]2C1 [Z477, (R)-8-acryloyl-4-chloro-3-(2-fluorophenyl)-1-((S)-2-methyl-4-propionylpiperazin-1-yl)-6,6a,7,8,9,10-hexahydro-12H-pyrazino[2,1-c]pyrido[3,4-f][1,4]oxazepin-12(6aH)-one] | 0.061 µM | 0.057 µM
C=CC(=O)N1CCN2C(=O)c3c(N4CC[C@@H](N(C)C)C4(C)C)nc(-c4ccccc4F)c(Cl)c3OC[C@H]2C1 [Z502-1, (6aR)-8-acryloyl-4-chloro-1-(3-(dimethylamino)-2,2-dimethylpyrrolidin-1-yl)-3-(2-fluorophenyl)-6,6a,7,8,9,10-hexahydro-12H-pyrazino[2,1-c]pyrido[3,4-f][1,4]oxazepin-12(6aH)-one] | 0.196 µM | 0.28 µM
C=CC(=O)N1CCN2C(=O)c3c(N4CC(N5CCOCC5)CC4(C)C)nc(-c4ccccc4F)c(Cl)c3OC[C@H]2C1 (single isomer, unassigned) [Z468-1] | 0.082 µM | 0.035 µM
C=CC(=O)N1CCN2C(=O)c3c(N4CC(O)CC4(C)C)nc(-c4c(O)cccc4F)c(Cl)c3OC[C@H]2C1 (stereo partly drawn) [Z50, (6aR)-8-amyloyl-4-chloro-3-(2-fluoro-6-hydroxyphenyl)-1-(4-hydroxy-2,2-dimethylpyrrolidin-1-yl)-6,6a,7,8,9,10-hexahydro-12H-pyrazino[2,1-c]pyrido[3,4-f][1,4]oxazepin-12-one] | 0.028 µM | 0.021 µM
C=CC(=O)N1CCN2C(=O)c3c(N4C[C@@H](N(C)C)CC4(C)C)nc(-c4cccc(F)c4F)c(Cl)c3OC[C@H]2C1 [Z473-1, (R)-8-acryloyl-4-chloro-3-(2,3-difluorophenyl)-1-((S)-4-(dimethylamino)-2,2-dimethylpyrrolidin-1-yl)-6,6a,7,8,9,10-hexahydro-12H-pyrazino[2,1-c]pyrido[3,4-f][1,4]oxazepin-12-one] | 0.151 µM | 0.105 µM
C=CC(=O)N1CCN2C(=O)c3c(N4C[C@H](N(C)CCOC)CC4(C)C)nc(-c4ccccc4F)c(Cl)c3OC[C@H]2C1 (single isomer, unassigned) [Z406-1] | 0.073 µM | 0.031 µM
